Tests used:
Test in all cases: Ba/F3 drug screening, Cell Titer Glo, IC50 Mut/WT
Format in all cases: cell-based
[1] = molecular target: T1, EGFR E709K L858R (Homo sapiens, UniProt P00533, E709K/L858R); details: Classical-Like, 72 hours
T1 construct: expressed in transfected cells; host or cells: Ba/F3 cells, retroviral pBabe-Puro vector

[2] = molecular target: T2, EGFR S720P (Homo sapiens, UniProt P00533, S720P); details: Classical-Like, 72 hours
T2 construct: expressed in transfected cells; host or cells: Ba/F3 cells, retroviral pBabe-Puro vector (vector made by GeneScript from EGFR WT)

[3] = molecular target: T3, EGFR T725M (Homo sapiens, UniProt P00533, T725M); details: Classical-Like, 72 hours
T3 construct: expressed in transfected cells; host or cells: Ba/F3 cells, retroviral pBabe-Puro vector (vector made by GeneScript from EGFR WT)

[4] = molecular target: T4, EGFR K754E (Homo sapiens, UniProt P00533, K754E); details: Classical-Like, 72 hours
T4 construct: expressed in transfected cells; host or cells: Ba/F3 cells, retroviral pBabe-Puro vector

[5] = molecular target: T5, EGFR D761N (Homo sapiens, UniProt P00533, D761N); details: Classical-Like, 72 hours
T5 construct: expressed in transfected cells; host or cells: Ba/F3 cells, retroviral pBabe-Puro vector

[6] = molecular target: T6, EGFR S768dupSVD V769M (Homo sapiens, UniProt P00533, INS768MDS/V769M); details: Ex20, 72 hours
T6 construct: expressed in transfected cells; host or cells: Ba/F3 cells, retroviral pBabe-Puro vector (vector made by GeneScript from EGFR S768dupSVD, c.2305G > A)

[7] = molecular target: T7, EGFR D770insNPG (Homo sapiens, UniProt P00533, INS770NPG); details: Ex20, 72 hours
T7 construct: expressed in transfected cells; host or cells: Ba/F3 cells, retroviral pBabe-Puro vector

[8] = molecular target: T8, EGFR H773insNPH (Homo sapiens, UniProt P00533, INS773NPH); details: Ex20, 72 hours
T8 construct: expressed in transfected cells; host or cells: Ba/F3 cells, retroviral pBabe-Puro vector

[9] = molecular target: T9, EGFR N771dupN (Homo sapiens, UniProt P00533, DUP771-771); details: Ex20, 72 hours
T9 construct: expressed in transfected cells; host or cells: Ba/F3 cells, retroviral pBabe-Puro vector

[10] = molecular target: T10, EGFR N771dupN G724S (Homo sapiens, UniProt P00533, DUP771-771/G724S); details: Ex20, 72 hours
T10 construct: expressed in transfected cells; host or cells: Ba/F3 cells, retroviral pBabe-Puro vector (vector made by GeneScript from EGFR G724S, c.2313_2314insAAC)

[11] = molecular target: T11, EGFR L858R/T790M (Homo sapiens, UniProt P00533, L858R/T790M); details: T790M-like-3S, 72 hours
T11 construct: expressed in transfected cells; host or cells: Ba/F3

[12] = molecular target: T12, EGFR Ex19del T790M (Homo sapiens, UniProt P00533, DEL746-750/T790M); details: T790M-like-3S, 72 hours
T12 construct: expressed in transfected cells; host or cells: Ba/F3

[13] = molecular target: T13, EGFR Ex19del/T790M/G724S (Homo sapiens, UniProt P00533, DEL746-750/G724S/T790M); details: T790M-like-3S, 72 hours
T13 construct: expressed in transfected cells; host or cells: Ba/F3

[14] = molecular target: T14, EGFR G724S T790M (Homo sapiens, UniProt P00533, G724S/T790M); details: T790M-like-3R, 72 hours
T14 construct: expressed in transfected cells; host or cells: Ba/F3

[15] = molecular target: T15, EGFR E709A G719S (Homo sapiens, UniProt P00533, E709A/G719S); details: PACC; E709A G719S; Ba/F3; 72 hours
T15 construct: expressed in transfected cells; host or cells: Ba/F3

[16] = molecular target: T16, EGFR E709K (Homo sapiens, UniProt P00533, E709K); details: PACC; E709K; Ba/F3; 72 hours
T16 construct: expressed in transfected cells; host or cells: Ba/F3

[17] = molecular target: T17, EGFR G719A/R776C (Homo sapiens, UniProt P00533, G719A/R776C); details: PACC; G719A/R776C; Ba/F3; 72 hours
T17 construct: expressed in transfected cells; host or cells: Ba/F3

[18] = molecular target: T18, EGFR G724S (Homo sapiens, UniProt P00533, G724S); details: PACC; G724S; Ba/F3; 72 hours
T18 construct: expressed in transfected cells; host or cells: Ba/F3

[19] = test system: EGFR I740dupIPVAK; details: PACC; I740dupIPVAK; Ba/F3; 72 hours
[20] = molecular target: T19, EGFR S768I (Homo sapiens, UniProt P00533, S768I); details: PACC; S768I; Ba/F3; 72 hours
T19 construct: expressed in transfected cells; host or cells: Ba/F3

[21] = molecular target: T20, EGFR R776C (Homo sapiens, UniProt P00533, R776C); details: PACC; R776C; Ba/F3; 72 hours
T20 construct: host or cells: Ba/F3

[22] = molecular target: T21, EGFR L858R/L718V (Homo sapiens, UniProt P00533, L718V/L858R); details: PACC; L858R/L718V; Ba/F3; 72 hours
T21 construct: host or cells: Ba/F3

[23] = molecular target: T22, EGFR Ex19del/L792H (Homo sapiens, UniProt P00533, DEL746-750/L792H); details: PACC; Ex19del/L792H; Ba/F3; 72 hours
T22 construct: expressed in transfected cells; host or cells: Ba/F3

[24] = molecular target: T23, EGFR Ex19del/C797S (Homo sapiens, UniProt P00533, C797S/DEL746-750); details: PACC; Ex19del/C797S; Ba/F3; 72 hours
T23 construct: expressed in transfected cells; host or cells: Ba/F3

[25] = molecular target: T24, EGFR Ex19del T854I (Homo sapiens, UniProt P00533, DEL746-750/T854I); details: PACC; Ex19del T854I; Ba/F3; 72 hours
T24 construct: expressed in transfected cells; host or cells: Ba/F3 (retroviral transduction, pBabe-Puro based vectors)

Q: CNC(=O)CN1CCC(Oc2cc3c(Nc4cccc(Cl)c4F)ncnc3cc2OC)CC1 [Sapatinib] was tested. Which “ratio of IC50 for cells with mutant EGFR to IC50 for cells with wildtype EGFR (Mut/WT)” value (“ratio of IC50 for cells with mutant EGFR” below) [1] did it give?
A: 0.02084

Q: And the “ratio of IC50 for cells with mutant EGFR” value [2]?
A: 0.004664

Q: And the “ratio of IC50 for cells with mutant EGFR” value [3]?
A: 0.00667

Q: And the “ratio of IC50 for cells with mutant EGFR” value [4]?
A: 0.00307

Q: What about the “ratio of IC50 for cells with mutant EGFR” value [5] of the same compound?
A: 0.001814

Q: And the “ratio of IC50 for cells with mutant EGFR” value [6]?
A: 1.596

Q: And the “ratio of IC50 for cells with mutant EGFR” value [7]?
A: 5.022

Q: What about the “ratio of IC50 for cells with mutant EGFR” value [8] of the same compound?
A: 1.265

Q: What about the “ratio of IC50 for cells with mutant EGFR” value [9] of the same compound?
A: 1.24

Q: What about the “ratio of IC50 for cells with mutant EGFR” value [10] of the same compound?
A: 1.103

Q: And the “ratio of IC50 for cells with mutant EGFR” value [11]?
A: 38.86

Q: What about the “ratio of IC50 for cells with mutant EGFR” value [12] of the same compound?
A: 10.73

Q: What about the “ratio of IC50 for cells with mutant EGFR” value [13] of the same compound?
A: 26.15

Q: And the “ratio of IC50 for cells with mutant EGFR” value [14]?
A: 48.62

Q: And the “ratio of IC50 for cells with mutant EGFR” value [15]?
A: 0.02227

Q: And the “ratio of IC50 for cells with mutant EGFR” value [16]?
A: 0.1216

Q: What about the “ratio of IC50 for cells with mutant EGFR” value [17] of the same compound?
A: 0.0489

Q: What about the “ratio of IC50 for cells with mutant EGFR” value [18] of the same compound?
A: 0.141

Q: And the “ratio of IC50 for cells with mutant EGFR” value [19]?
A: 0.008351

Q: And the “ratio of IC50 for cells with mutant EGFR” value [20]?
A: 0.1883

Q: What about the “ratio of IC50 for cells with mutant EGFR” value [21] of the same compound?
A: 0.02012

Q: And the “ratio of IC50 for cells with mutant EGFR” value [22]?
A: 0.05575

Q: What about the “ratio of IC50 for cells with mutant EGFR” value [23] of the same compound?
A: 53.47

Q: And the “ratio of IC50 for cells with mutant EGFR” value [24]?
A: 0.0006085

Q: What about the “ratio of IC50 for cells with mutant EGFR” value [25] of the same compound?
A: 0.2548

From patent US20240384350A1, “METHODS OF TREATING CANCER WITH KINASE INHIBITORS” (BOARD OF REGENTS, THE UNIVERSITY OF TEXAS SYSTEM, priority 2021, published 2024)
